For series [1], the species on record is Rattus norvegicus. Nature of the series: Modulation of gamma-secretase in rat fetus primary neurons assessed as inhibition of amyloid beta42 production at 2.5 uM after 1 to 3 days by ELISA.
Series [2] has as its system Mus musculus. Nature of the series: Reduction in amyloid beta42 production in wild type mouse plasma at 100 mg/kg, po. Also on record: scale not given: the % may be the effect or the level left. Type of series: functional.
Series [3] can be described thus: Permeability of the compound at pH 7.4 by PAMPA. To be noted: read-out: permeability. In kind it is ADME.
Series [4] in a line: Aqueous solubility of the compound at pH 7.4. In kind it is physicochemical.
Series [5] in a line: Modulation of gamma-secretase in rat fetus primary neurons assessed as inhibition of amyloid beta42 production after 1 to 3 days by ELISA.
The test system of series [6] is Mus musculus. Nature of the series: Reduction in amyloid beta42 production in wild type mouse hippocampus at 100 mg/kg, po. In kind it is functional. On the set-up: scale not given: the % may be the effect or the level left.

Values after ≈ are worked out from the molar mass of the structure shown. Bounds are passed on as bounds.

Turning to `COc1cc(C(=O)N2CC3CC2CN3Cc2cccc(C(F)(F)F)c2)ccc1-n1cnc(C)c1` (configuration not stated), the inhibition in series [1] was 51%. On the same count and under the same terms, the figure for `COc1cc(C(=O)N(C(C)C)C2CCCN(Cc3cccc(C(F)(F)F)c3)C2)ccc1-n1cnc(C)c1` (configuration not stated) is below 1%. The same measure, in the same setting: the figure for `COc1cc(C(=O)N2C3CCC2CN(Cc2cccc(C(F)(F)F)c2)C3)ccc1-n1cnc(C)c1` is 19%; for `COc1cc(C(=O)N[C@@H]2CCCN(Cc3ccc(C)cc3)C2)ccc1-n1cnc(C)c1` it is 36%. Still for that read-out and setting: the figure for `COc1cc(C(=O)N[C@H]2CCCN(C(=O)c3ccc(C)cc3)C2)ccc1-n1cnc(C)c1` is 55%; for `COc1cc(C(=O)N(C)C2CCCN(Cc3cccc(C(F)(F)F)c3)C2)ccc1-n1cnc(C)c1` (configuration not stated) it is below 1%. With `COc1cc(C(=O)N[C@H]2CCCN(Cc3ccc(Br)cc3)C2)ccc1-n1cnc(C)c1`, the Activity in series [2] is listed as 66%; in series [6], 55%. In series [3], the Papp came to 500 nm/s. Further, the solubility in series [4] amounted to 8 µg/mL (≈ 16.5 µM). The IC50 in series [5] stood at 0.25 µM. In series [1], the inhibition is 97%. Take `COc1cc(C(=O)N[C@@H]2CCCN(Cc3ccc(C(F)(F)F)cc3)C2)ccc1-n1cnc(C)c1`: in series [1], the inhibition came out at 57%. As for `COc1cc(C(=O)NC2CCN(Cc3cccc(C(F)(F)F)c3)CC2)ccc1-n1cnc(C)c1`, the inhibition in series [1] was 78%. Still for that read-out and setting: the figure for `COc1cc(C(=O)NC2CCCN(Cc3ccccc3C)C2)ccc1-n1cnc(C)c1` (racemic) is 62%; for `COc1cc(C(=O)N2CCCC(NCc3cccc(C(F)(F)F)c3)C2)ccc1-n1cnc(C)c1` (configuration not stated) it is 17%; for `COc1cc(C(=O)NC2CCCN(C(=O)NCc3ccc(C)cc3)C2)ccc1-n1cnc(C)c1` (racemic) it is 28%. Same read-out and setting: the figure for `COc1cc(C(=O)N[C@H]2CCCN(C(=O)c3ccc(C(F)(F)F)cc3)C2)ccc1-n1cnc(C)c1` is 34%; for `COc1cc(C(=O)N[C@H]2CCCN(Cc3cccc(C(F)(F)F)c3)C2)ccc1-n1cnc(C)c1` it is 82%. Same read-out and setting: with `COc1cc(C(=O)NC2CCCN(C(=O)NCc3ccc(Br)cc3)C2)ccc1-n1cnc(C)c1` (racemic) the figure was 47%.

Turning to `COc1cc(C(=O)NC2CCCN(Cc3ccc(C)cc3)C2)ccc1-n1cnc(C)c1` (racemic), the inhibition in series [1] was determined as 82%. On the same count and under the same terms, the figure for `COc1cc(C(=O)NC2CCCN(Cc3ccc(C(F)(F)F)cc3)C2)ccc1-n1cnc(C)c1` (racemic) is 90%; for `COc1cc(C(=O)NC2CCCN(Cc3ccccc3)C2)ccc1-n1cnc(C)c1` (racemic) it is 37%.

With `COc1cc(C(=O)N2CCC(NCc3cccc(C(F)(F)F)c3)C2)ccc1-n1cnc(C)c1` (configuration not stated), the inhibition in series [1] was 39%. The same measure, in the same setting: the figure for `COc1cc(C(=O)NC2CCCN(C(=O)NCc3ccccc3)C2)ccc1-n1cnc(C)c1` (racemic) is 25%. For the compound `CCN(C(=O)c1ccc(-n2cnc(C)c2)c(OC)c1)C1CCCN(Cc2cccc(C(F)(F)F)c2)C1` (configuration not stated), the inhibition in series [1] is below 1%.

Turning to `COc1cc(C(=O)N[C@@H]2CCCN(Cc3cccc(C(F)(F)F)c3)C2)ccc1-n1cnc(C)c1`, in series [1], the inhibition was 72%. The same measure, in the same setting: the figure for `COc1cc(C(=O)N[C@@H]2CCCN(Cc3ccc(Br)cc3)C2)ccc1-n1cnc(C)c1` is 55%.

With `COc1cc(C(=O)N2CCN(Cc3cccc(C(F)(F)F)c3)CC2)ccc1-n1cnc(C)c1`, the inhibition in series [1] came to 18%.

As for `COc1cc(C(=O)NC2CCCN(Cc3ccc(Br)cc3)C2)ccc1-n1cnc(C)c1` (racemic), the inhibition in series [1] came to 93%. On the same count and under the same terms, the figure for `COc1cc(C(=O)N[C@H]2CCCN(Cc3ccc(C)cc3)C2)ccc1-n1cnc(C)c1` is 90%. Still for that read-out and setting: with `COc1cc(C(=O)N[C@H]2CCCN(Cc3ccc(C(F)(F)F)cc3)C2)ccc1-n1cnc(C)c1` the figure was 92%. Still for that read-out and setting: with `COc1cc(C(=O)N[C@H]2CCCN(C(=O)c3ccc(Br)cc3)C2)ccc1-n1cnc(C)c1` the figure was 64%. With `COc1ccc(CN2CCCC(NC(=O)c3ccc(-n4cnc(C)c4)c(OC)c3)C2)cc1` (racemic), the inhibition in series [1] turned out to be 45%. On the same count and under the same terms, with `COc1cc(C(=O)NC2CCN(Cc3cccc(C(F)(F)F)c3)C2)ccc1-n1cnc(C)c1` (configuration not stated) the figure was 31%; with `COc1cc(C(=O)NC2CC3CCC(C2)N3Cc2cccc(C(F)(F)F)c2)ccc1-n1cnc(C)c1` (configuration not stated), 40%; with `COc1cc(C(=O)NC2CCCN(Cc3cccc(C)c3)C2)ccc1-n1cnc(C)c1` (racemic), 54%.

The values are drawn from ChEMBL document CHEMBL3098061, “Design and synthesis of an aminopiperidine series of γ-secretase modulators” (Bioorg Med Chem Lett, 2014).
